Assay results published in BindingDB's records for patent US11472811 (BEIGENE, LTD., 2022).

Molecular target: Adenosine receptor A2a (Homo sapiens, UniProt P29274)
Assay: Luciferase Reporter Assay
Protocol: HEK293-A2AR-luc2p/CRE/Hygro cells were seeded at a density of 5,000 cells/well in DMEM with 1% FBS and 1 U/mL adenosine deaminase (ADA) (Sigma). After 18 h, the cells were treated with 3 nM CGS21680 plus a series dilution of A2AR antagonist, the compounds disclosed herein at the concentration of 0.1 10000 nM, prepared in DMEM with 1% FBS. After 5 h incubation, the luciferase activity in cells were measured using the Bright-Glo Luciferase Assay System (Promega) according to manufacturer's instructions. The luminescence signal was measured using a PHERAstar FS plate reader (BMG Labtech). […] Maximal luminescence intensity was determined in the presence of 3 nM CGS21680 and was set as 100%. The IC50 value was calculated from a dose dependent inhibition curve across the range of compound concentrations.

Chain of Adenosine receptor A2a (P29274 whole entry): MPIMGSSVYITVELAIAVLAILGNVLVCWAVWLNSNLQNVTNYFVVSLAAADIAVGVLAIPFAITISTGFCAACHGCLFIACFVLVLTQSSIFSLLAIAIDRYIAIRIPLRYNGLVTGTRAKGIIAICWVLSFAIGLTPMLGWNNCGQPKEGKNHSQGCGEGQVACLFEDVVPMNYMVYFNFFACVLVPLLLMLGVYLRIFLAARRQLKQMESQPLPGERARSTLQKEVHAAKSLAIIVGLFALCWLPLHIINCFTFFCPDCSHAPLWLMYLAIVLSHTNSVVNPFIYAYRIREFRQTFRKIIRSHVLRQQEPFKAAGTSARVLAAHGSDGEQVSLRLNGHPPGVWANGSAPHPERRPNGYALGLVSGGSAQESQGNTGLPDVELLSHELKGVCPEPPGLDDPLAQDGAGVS

Compound: C[C@@](C(=O)O)(c1ccccc1)n1ncc2c1nc(N)n1nc(-c3ccco3)nc21 [US11472811, Example Intermediate-Ia]
- IC50: 194 nM
